Reference: ChEMBL document CHEMBL1201862, “PubChem BioAssay data set” (2004)
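Where inhibition never reached the appropriate level, the endpoint shown equals the highest concentration tested. Otherwise, values were interpolated linearly from a five-concentration, 48-hour dose response in 96-well plates. GI50 is the concentration that inhibits growth by half.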 The source made the active and inactive calls. Rule as the data show it: active = GI50 up to about 1.1 µM and inactive = higher.

Tests used:
Experiment in all cases: NCI tumour cell line growth inhibition, 48 h
HL-60 = tested on: HL-60
MDA-N = tested on: MDA-N
SF-539 = tested on: SF-539
HOP-62 = tested on: HOP-62
SK-MEL-5 = tested on: SK-MEL-5
RPMI-8226 = tested on: RPMI-8226
OVCAR-3 = tested on: OVCAR-3
SNB-78 = tested on: SNB-78
KM-20L2 = tested on: KM-20L2
TK-10 = tested on: TK-10
LXFL 529 = tested on: LXFL 529
MDA-MB-231 = tested on: MDA-MB-231
SW-620 = tested on: SW-620
MDA-MB-435 = tested on: MDA-MB-435
SNB-19 = tested on: SNB-19
U-251 = tested on: U-251
SN12C = tested on: SN12C
HCC 2998 = tested on: HCC 2998
DU-145 = tested on: DU-145
NCI-H460 = tested on: NCI-H460
A549 = tested on: A549
NCI-H226 = tested on: NCI-H226
SR = tested on: SR
CCRF-CEM = tested on: CCRF-CEM
ACHN = tested on: ACHN
OVCAR-4 = tested on: OVCAR-4
MOLT-4 = tested on: MOLT-4
SF-295 = tested on: SF-295
UACC-257 = tested on: UACC-257
A498 = tested on: A498
M14 = tested on: M14
OVCAR-8 = tested on: OVCAR-8
M19-MEL = tested on: M19-MEL
SNB-75 = tested on: SNB-75
SK-OV-3 = tested on: SK-OV-3
HOP-18 = tested on: HOP-18
RXF 393 = tested on: RXF 393
T47D = tested on: T47D
DMS-114 = tested on: DMS-114
HCT-15 = tested on: HCT-15
KM12 = tested on: KM12
XF498 = tested on: XF498
RXF 631 = tested on: RXF 631
DLD-1 = tested on: DLD-1
EKVX = tested on: EKVX
UACC-62 = tested on: UACC-62
COLO 205 = tested on: COLO 205
NCI-H23 = tested on: NCI-H23
PC-3 = tested on: PC-3
OVCAR-5 = tested on: OVCAR-5
NCI/ADR-RES = tested on: NCI/ADR-RES
K562 = tested on: K562
UO-31 = tested on: UO-31
Hs-578T = tested on: Hs-578T
DMS-273 = tested on: DMS-273
NCI-H522 = tested on: NCI-H522
HOP-92 = tested on: HOP-92
BT-549 = tested on: BT-549
CAKI-1 = tested on: CAKI-1
HT-29 = tested on: HT-29
HCT-116 = tested on: HCT-116
LOX IMVI = tested on: LOX IMVI
SF-268 = tested on: SF-268
SK-MEL-28 = tested on: SK-MEL-28
MCF7 = tested on: MCF7
IGROV-1 = tested on: IGROV-1
786-0 = tested on: 786-0
SK-MEL-2 = tested on: SK-MEL-2
Malme-3M = tested on: Malme-3M

Compound: Cc1cc(/N=C2\C=C(Nc3cc(C)on3)C(=O)c3ccccc32)no1
- GI50 (HL-60): > 100 µM (inactive)
- GI50 (MDA-N): 1.96 µM (inactive)
- GI50 (SF-539): 31.6 µM (inactive)
- GI50 (HOP-62): > 61.1 µM (inactive)
- GI50 (SK-MEL-5): 1.82 µM (inactive)
- GI50 (RPMI-8226): > 100 µM (inactive)
- GI50 (OVCAR-3): > 100 µM (inactive)
- GI50 (SNB-78): 24.7 µM (inactive)
- GI50 (KM-20L2): 43.7 µM (inactive)
- GI50 (TK-10): 55 µM (inactive)
- GI50 (LXFL 529): > 100 µM (inactive)
- GI50 (MDA-MB-231): 12.9 µM (inactive)
- GI50 (SW-620): > 100 µM (inactive)
- GI50 (MDA-MB-435): 7.24 µM (inactive)
- GI50 (SNB-19): 61 µM (inactive)
- GI50 (U-251): 30.1 µM (inactive)
- GI50 (SN12C): > 80.9 µM (inactive)
- GI50 (HCC 2998): > 100 µM (inactive)
- GI50 (DU-145): 52.5 µM (inactive)
- GI50 (NCI-H460): > 67.8 µM (inactive)
- GI50 (A549): 31.2 µM (inactive)
- GI50 (NCI-H226): > 92 µM (inactive)
- GI50 (SR): > 100 µM (inactive)
- GI50 (CCRF-CEM): > 100 µM (inactive)
- GI50 (ACHN): > 64.3 µM (inactive)
- GI50 (OVCAR-4): > 100 µM (inactive)
- GI50 (MOLT-4): > 100 µM (inactive)
- GI50 (SF-295): 46.5 µM (inactive)
- GI50 (UACC-257): 13.9 µM (inactive)
- GI50 (A498): > 100 µM (inactive)
- GI50 (M14): 34.7 µM (inactive)
- GI50 (OVCAR-8): 37.3 µM (inactive)
- GI50 (M19-MEL): 2.64 µM (inactive)
- GI50 (SNB-75): 31.6 µM (inactive)
- GI50 (SK-OV-3): 77.8 µM (inactive)
- GI50 (HOP-18): 28.4 µM (inactive)
- GI50 (RXF 393): 30.3 µM (inactive)
- GI50 (T47D): 47.3 µM (inactive)
- GI50 (DMS-114): 25.1 µM (inactive)
- GI50 (HCT-15): 48.1 µM
- GI50 (KM12): > 71.8 µM (inactive)
- GI50 (XF498): 35.6 µM (inactive)
- GI50 (RXF 631): 28.8 µM (inactive)
- GI50 (DLD-1): > 100 µM (inactive)
- GI50 (EKVX): > 66.2 µM (inactive)
- GI50 (UACC-62): 12 µM (inactive)
- GI50 (COLO 205): 31.3 µM (inactive)
- GI50 (NCI-H23): 4.69 µM (inactive)
- GI50 (PC-3): > 100 µM (inactive)
- GI50 (OVCAR-5): > 76 µM (inactive)
- GI50 (NCI/ADR-RES): 69 µM (inactive)
- GI50 (K562): > 100 µM (inactive)
- GI50 (UO-31): 43.7 µM (inactive)
- GI50 (Hs-578T): 13.2 µM (inactive)
- GI50 (DMS-273): 80.4 µM (inactive)
- GI50 (NCI-H522): > 100 µM (inactive)
- GI50 (HOP-92): 19 µM (inactive)
- GI50 (BT-549): 27.5 µM (inactive)
- GI50 (CAKI-1): > 85.9 µM (inactive)
- GI50 (HT-29): 49.7 µM (inactive)
- GI50 (HCT-116): 53.7 µM (inactive)
- GI50 (LOX IMVI): 8.71 µM (inactive)
- GI50 (SF-268): 36.9 µM (inactive)
- GI50 (SK-MEL-28): 60.5 µM (inactive)
- GI50 (MCF7): 7.46 µM (inactive)
- GI50 (IGROV-1): 33.1 µM (inactive)
- GI50 (786-0): 38.1 µM (inactive)
- GI50 (SK-MEL-2): 17.1 µM (inactive)
- GI50 (Malme-3M): 21.5 µM (inactive)
